Reference: patent US20240148821A1, “PHARMACEUTICAL USE OF CYCLIC PEPTIDE COMPOUND” (CHUGAI SEIYAKU KABUSHIKI KAISHA, priority 2021, published 2024)
Numbered stars: 1 amine (or outer) side, 2 acyl side, 3 side chain; on linkers, the order of the positions; unused ones are H or OH. Bridge positions count the residues as written; N and C are the ends. Square brackets hold non-standard residues; d marks the D form. Peptide text beside a SMILES is read from it. * marks the point of attachment. hPhe(3-Cl-4-CF3) = N[C@@H](CCc1ccc(C(F)(F)F)c(Cl)c1)C(=O)O; NMePhe(4-Me) = CN[C@@H](Cc1ccc(C)cc1)C(=O)O; NMePhe(4-F) = CN[C@@H](Cc1ccc(F)cc1)C(=O)O; NMedβ3hAla = C[C@H](CC(=O)[*:2])N(C)[*:1]; NMeAla(cPent) = CN[C@@H](CC1CCCC1)C(=O)O; NMeCha = CN[C@@H](CC1CCCCC1)C(=O)O; NMeGly(cPr) = CN[C@H](C(=O)O)C1CC1; NMeD = CN[C@@H](CC(=O)O)C(=O)O; NMeL = CN[C@@H](CC(C)C)C(=O)O; Ahp(2) = CCCCC[C@H](N)C(=O)O; NMeV = CN[C@H](C(=O)O)C(C)C; NMeA = CN[C@@H](C)C(=O)O; Nle = CCCC[C@H](N)C(=O)O; Piperidide = C1CCN(*)CC1; dNMeA = CN[C@H](C)C(=O)O; Ac5c = NC1(C(=O)O)CCCC1; Aze = O=C(O)[C@@H]1CCN1; Cyclopropyl = C1CC1*; Sar = CNCC(=O)O

Assays:
[1] = test system: Human pancreatic cancer cell line AsPC-1 (G12D mutation Kras); assay: AsPC-1 cell growth inhibition (AsPC-1 CGI); type: cell-based; conditions: read-out: AsPC-1 cell growth inhibition, 50% growth inhibitory concentration (IC50 value); 96 hours, CellTiter-Glo, values classified in ranges
Experimental: Test compounds were serially dilated with dimethyl sulfoxide, and 200 nL was then dispensed to a U-bottom 96-well plate using Labcyte Echo. […] The cell suspension was dispensed to a. plate containing a test compound at 100 μL per well and incubated at 37° C. in a 5% carbon dioxide gas incubator. 96 hours later, 80 μL of CellTiter-Glo (Promega) was added to each well and fluorescence was measured.

[2] = molecular target: protein-protein interaction between Kras and SOS1 (biotin-tagged human Kras loaded with GDP, His-tagged human SOS1) (Homo sapiens (Human), UniProt P01116, G12D); assay: Protein-protein interaction inhibition between Kras and SOS1 (KrasG12D-SOS PPI) using AlphaScreen; type: biochemical; conditions: AlphaScreen; biotin-tagged human Kras loaded with GDP, His-tagged human SOS1; read-out: KRAS G12D-SOS PPI IC50;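 also: kras produced in E. coli, Ni-coupled donor beads and streptavidin acceptor beads, excitation 680 nm with emission detected at 520–620 nm via singlet oxygen transfer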

`CC[C@H](C)[C@@H]1NC(=O)[C@H](CC(C)C)N(C)C(=O)C[C@@H](C)N(C)C(=O)[C@H](C(C)C)N(C)C(=O)C2(CCCC2)NC(=O)[C@@H]2CCCN2C(=O)[C@H](CCc2ccc(C(F)(F)F)c(Cl)c2)NC(=O)CN(C)C(=O)[C@H](Cc2ccc(C)cc2)N(C)C(=O)[C@@H]2CCN2C(=O)[C@H](C)N(C)C1=O` [Compound 1809] (cyclo([Ac5c][NMeV][NMedβ3hAla][NMeL]I[NMeA][Aze][NMePhe(4-Me)][Sar][hPhe(3-Cl-4-CF3)]P)) was tested, and the IC50 [1] was no more than 20 nM and the IC50 [2] was 1.4 nM.
In the case of `CC(C)C[C@H]1C(=O)N[C@@H](COC2CC2)C(=O)N(C)[C@@H](C)C(=O)N2CC[C@H]2C(=O)N(C)[C@@H](CC2CCCCC2)C(=O)N(C)CC(=O)N[C@@H](CCc2ccc(C(F)(F)F)c(Cl)c2)C(=O)N2CCC[C@H]2C(=O)NC2(CCCC2)C(=O)N(C)[C@@H](C(C)C)C(=O)N(C)[C@H](C(=O)N2CCCCC2)CC(=O)N1C` [Compound 1811] ([NMeL]S(Cyclopropyl)[NMeA][Aze][NMeCha][Sar][hPhe(3-Cl-4-CF3)]P[Ac5c][NMeV][NMeD]-Piperidide; lactam N-11), the IC50 [1] is reported as greater than 500 nM and the IC50 [2] is reported as 56 nM.
`CC[C@H](C)[C@@H]1NC(=O)[C@H](C)N(C)C(=O)C[C@@H](C(=O)N2CCCCC2)N(C)C(=O)[C@H](C(C)C)N(C)C(=O)C2(CCCC2)NC(=O)[C@@H]2CCCN2C(=O)[C@H](CCc2ccc(C(F)(F)F)c(Cl)c2)NC(=O)[C@@H](C)N(C)C(=O)[C@H](Cc2ccc(F)cc2)N(C)C(=O)[C@@H]2CCN2C(=O)[C@H](C)N(C)C1=O` [Compound 1816] ([NMeA]I[NMeA][Aze][NMePhe(4-F)][dNMeA][hPhe(3-Cl-4-CF3)]P[Ac5c][NMeV][NMeD]-Piperidide; lactam N-11) gave an IC50 [1] greater than 500 nM and an IC50 [2] of 12 nM.
In the case of `CC[C@H](C)[C@@H]1NC(=O)[C@H](CC(C)C)N(C)C(=O)C[C@@H](C(=O)N2CCCCC2)N(C)C(=O)[C@H](CC2CCCC2)N(C)C(=O)C2(CCCC2)NC(=O)[C@@H]2CCCN2C(=O)[C@H](CCc2ccc(C(F)(F)F)c(Cl)c2)NC(=O)CN(C)C(=O)[C@H](CC2CCCCC2)N(C)C(=O)[C@@H]2CCN2C(=O)[C@H](C)N(C)C1=O` [Compound 1820] ([NMeL]I[NMeA][Aze][NMeCha][Sar][hPhe(3-Cl-4-CF3)]P[Ac5c][NMeAla(cPent)][NMeD]-Piperidide; lactam N-11), the IC50 [1] is reported as greater than 500 nM and the IC50 [2] is reported as 14 nM.
In the case of `CC[C@H](C)[C@@H]1NC(=O)[C@H](CC(C)C)N(C)C(=O)C[C@@H](C(=O)N2CCCCC2)N(C)C(=O)[C@H](C2CC2)N(C)C(=O)C2(CCCC2)NC(=O)[C@@H]2CCCN2C(=O)[C@H](CCc2ccc(C(F)(F)F)c(Cl)c2)NC(=O)CN(C)C(=O)[C@H](CC2CCCCC2)N(C)C(=O)[C@@H]2CCN2C(=O)[C@H](C)N(C)C1=O` [Compound 1822] ([NMeL]I[NMeA][Aze][NMeCha][Sar][hPhe(3-Cl-4-CF3)]P[Ac5c][NMeGly(cPr)][NMeD]-Piperidide; lactam N-11), the IC50 [1] is reported as greater than 500 nM and the IC50 [2] is reported as 50 nM.
`CCCC[C@@H]1NC(=O)[C@H](CC(C)C)N(C)C(=O)C[C@@H](C(=O)N2CCCCC2)N(C)C(=O)[C@H](C(C)C)N(C)C(=O)C2(CCCC2)NC(=O)[C@@H]2CCCN2C(=O)[C@H](CCc2ccc(C(F)(F)F)c(Cl)c2)NC(=O)CN(C)C(=O)[C@H](CC2CCCCC2)N(C)C(=O)[C@@H]2CCN2C(=O)[C@H](C)N(C)C1=O` [Compound 1823] ([NMeL][Nle][NMeA][Aze][NMeCha][Sar][hPhe(3-Cl-4-CF3)]P[Ac5c][NMeV][NMeD]-Piperidide; lactam N-11) showed an IC50 [1] greater than 500 nM and an IC50 [2] of 59 nM.
For `CCCCC[C@@H]1NC(=O)[C@H](CC(C)C)N(C)C(=O)C[C@@H](C(=O)N2CCCCC2)N(C)C(=O)[C@H](C(C)C)N(C)C(=O)C2(CCCC2)NC(=O)[C@@H]2CCCN2C(=O)[C@H](CCc2ccc(C(F)(F)F)c(Cl)c2)NC(=O)CN(C)C(=O)[C@H](CC2CCCCC2)N(C)C(=O)[C@@H]2CCN2C(=O)[C@H](C)N(C)C1=O` [Compound 1826] ([NMeL][Ahp(2)][NMeA][Aze][NMeCha][Sar][hPhe(3-Cl-4-CF3)]P[Ac5c][NMeV][NMeD]-Piperidide; lactam N-11), the IC50 [1] was greater than 500 nM and the IC50 [2] was 99 nM.
